Test results: ChEMBL document CHEMBL1126321, “Antitumor agents. 123. Synthesis and human DNA topoisomerase II inhibitory activity of 2'-chloro derivatives of etoposide and 4 beta-(arylamino)-4'-O-demethylpodophyllotoxins” (J Med Chem, 1992)

Legend:
[1] = Concentration required for 50% reduction in KB cell number after 3-day incubation; assay type: functional, cell-based, Homo sapiens
Nucleic Acid = assay: Effect on cellular protein DNA complex formation(%) at 10 uM in comparison with etoposide; assay type: functional
[2] = target: T1, DNA topoisomerase II (Homo sapiens) (UniProt P11388+Q02880); assay: Evaluated for the inhibition of human DNA Topoisomerase II; assay type: protein assay
[3] = target: T1, DNA topoisomerase II (Homo sapiens); assay: Compound was evaluated for the inhibition of human DNA Topoisomerase II; assay type: protein assay

Row | IC50 [1] [µM] | ID50 [2] [µM] | ID50 [3] [µM] | SMILES | Complex formation (Nucleic Acid) [%]
1 | > 7.2 | > 100 |  | COc1cc([C@@H]2c3cc4c(cc3[C@@H](Nc3ccc5c(c3)OCO5)[C@H]3COC(=O)[C@H]23)OCO4)c(Cl)c(OC)c1O | 0
2 | > 7.3 | > 100 |  | COc1cc([C@@H]2c3cc4c(cc3[C@@H](Nc3ccc(Cl)cc3)[C@H]3COC(=O)[C@H]23)OCO4)c(Cl)c(OC)c1O | 0
3 | > 7.2 |  | > 100 | COc1cc([C@@H]2c3cc4c(cc3[C@@H](Nc3ccc([N+](=O)[O-])cc3)[C@H]3COC(=O)[C@H]23)OCO4)c(Cl)c(OC)c1O | 0
4 | > 22.3 | > 50 |  | COc1cc([C@@H]2c3cc4c(cc3[C@@H](O)[C@H]3COC(=O)[C@H]23)OCO4)c(Cl)c(OC)c1O | 15.6
5 | 5.7 | > 100 |  | COc1cc([C@@H]2c3cc4c(cc3[C@@H](Nc3cccc(O)c3)[C@H]3COC(=O)[C@H]23)OCO4)c(Cl)c(OC)c1O | 0
6 | 0.68 | 10 |  | COc1cc([C@@H]2c3cc4c(cc3[C@@H](Nc3ccc5c(c3)OCO5)[C@H]3COC(=O)[C@H]23)OCO4)cc(OC)c1O | 279
7 | > 7 | > 100 |  | COc1cc([C@@H]2c3cc4c(cc3[C@@H](Nc3ccc5c(c3)OCCO5)[C@H]3COC(=O)[C@H]23)OCO4)c(Cl)c(OC)c1O | 0
8 | > 6.4 | > 50 |  | COc1cc([C@@H]2c3cc4c(cc3[C@@H](O[C@@H]3O[C@@H]5CO[C@@H](C)O[C@H]5[C@H](O)[C@H]3O)[C@H]3COC(=O)[C@H]23)OCO4)c(Cl)c(OC)c1O | 6.1
9 | > 7.2 | > 100 |  | COc1cc([C@@H]2c3cc4c(cc3[C@@H](Nc3cccc([N+](=O)[O-])c3)[C@H]3COC(=O)[C@H]23)OCO4)c(Cl)c(OC)c1O | 0
10 | > 6.8 | > 100 |  | COc1cc([C@@H]2c3cc4c(cc3[C@@H](Nc3ccc(Br)cc3)[C@H]3COC(=O)[C@H]23)OCO4)c(Cl)c(OC)c1O | 0
11 | > 7.5 | > 100 |  | COc1cc([C@@H]2c3cc4c(cc3[C@@H](Nc3ccc(F)cc3)[C@H]3COC(=O)[C@H]23)OCO4)c(Cl)c(OC)c1O | 0

Row | SMILES | IC50 [1] [µM] | ID50 [2] [µM] | ID50 [3] [µM] | Complex formation (Nucleic Acid) [%]
12 | COc1cc([C@@H]2c3cc4c(cc3[C@@H](Nc3cccc(O)c3)[C@H]3COC(=O)[C@H]23)OCO4)cc(OC)c1O | 0.45 |  |  | 290
13 | COc1cc([C@@H]2c3cc4c(cc3[C@@H](Nc3ccc(F)cc3)[C@H]3COC(=O)[C@H]23)OCO4)cc(OC)c1O | 0.24 |  |  | 213
14 | COc1cc([C@@H]2c3cc4c(cc3[C@@H](O[C@@H]3O[C@@H]5CO[C@@H](C)O[C@H]5[C@H](O)[C@H]3O)[C@H]3COC(=O)[C@H]23)OCO4)cc(OC)c1O [ETOPOSIDE] | 0.2 |  |  | 100
15 | COc1cc([C@@H]2c3cc4c(cc3[C@@H](Nc3ccc([N+](=O)[O-])cc3)[C@H]3COC(=O)[C@H]23)OCO4)cc(OC)c1O | 0.49 |  |  | 323
